From PubChem BioAssay (NCI) come the findings set out here.

Structures are written as SMILES.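 Each compound was tested at five concentrations against cells in 96-well plates for 48 hours. The concentration for 50% growth inhibition is given as GI50. TGI is the concentration that stops growth completely.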 A value given as a limit tells only on which side of the number the result lay.

What all share (assay): growth of human tumour cells (NCI), 48 h
Assay [1] has as its system SR leukemia.
The test system of assay [2] is ACHN renal.
Assay [3] relates to M14 melanoma.
Assay [4] relates to T-47D breast.
The subject of assay [5] is SK-OV-3 ovarian.
Assay [6] has as its system CAKI-1 renal.
The test system of assay [7] is PC-3 prostate.
Assay [8] has as its system MOLT-4 leukemia.
Assay [9] concerns KM12 colon.
Assay [10] concerns SN12C renal.

As for `CC1(N)CCN(c2cnc(-c3cccc(Cl)c3Cl)c(N)n2)CC1`, the GI50 was 7.6 µM in assay [1]; 10.9 µM in [2]; 16.4 µM in assay [3]; 17.3 µM in assay [4]; 3.02 µM in assay [5]; 14.8 µM in assay [6]. Moreover, the GI50 in assay [7] was 26.7 µM; in [8], 22.7 µM; in assay [9], 7.13 µM; in assay [10], 15.6 µM. In addition, the TGI in [1] was 80 µM; in [2], over 100 µM; in assay [3] it was 33.2 µM; in assay [4], 68.4 µM; in [5] it was 60.5 µM; in [6], over 100 µM. The TGI in assay [7] was over 100 µM; in [8] it was 99.3 µM; in assay [9], over 100 µM; in [10] it was over 100 µM.

With `CCCN(CCC)c1ccc(/C=N/NC(=O)c2cccnc2)c(OC)c1`, the GI50 in [1] was 17.1 µM; in [2], 28.8 µM; in assay [4], 17.3 µM; in [5] it was 21.6 µM; in assay [6] it was 21.5 µM; in assay [7] it was 25.2 µM. Moreover, the GI50 in assay [8] is 22.8 µM; in assay [9] it was 21.3 µM; in [10], 36.1 µM. In addition, the TGI in assay [1] is 59.6 µM; in [2], over 100 µM; in [4], 50.8 µM; in assay [5], 71.3 µM; in assay [6] it was 93.2 µM; in assay [7], over 100 µM. The TGI in assay [8] is 51.7 µM; in [9], 68.3 µM; in assay [10], over 100 µM.

For `CC(C(N)C(=O)NC(C(=O)O)C1OC(n2ccc(=O)[nH]c2=O)C(O)C1O)C(O)c1ccc(O)cn1` (configuration not stated), the TGI in assay [1], in assay [2], in [3], in assay [4], in [6] and in [7] was over 100 µM each time. The TGI in assay [8], in [9] and in [10] was over 100 µM each time.

Take `CCN(CC)C(=S)SCN1C(=O)c2ccccc2S1(=O)=O`: the GI50 in assay [1] was under 0.01 µM; in assay [2], 64.6 µM; in assay [3] it was 20.9 µM; in assay [4] it was 36 µM; in [5], over 100 µM; in assay [6], over 70.5 µM. The GI50 is 4.9 µM in assay [7], 23.9 µM in [8], 14.4 µM in [9] and 53.7 µM in [10]. In addition, the TGI in assay [1] was 27.7 µM; in [2], over 100 µM; in assay [3], over 82.5 µM; in assay [4], over 100 µM; in [5], over 100 µM; in [6], over 100 µM. The TGI in assay [7], in [8], in [9] and in [10] was over 100 µM each time.

For the compound `C[N+](C)(C)CC(=O)N/N=C(\C(=O)NC1=C(Cl)C(=O)c2ccccc2C1=O)C(C#N)c1nc(-c2ccc([N+](=O)[O-])cc2)cs1` (configuration not stated), the TGI in [1] was determined as 52.5 µM; in assay [2], 26 µM; in assay [3] it was 8.65 µM; in [4] it was 37.9 µM; in assay [5] it was 41.8 µM; in assay [6] it was 48.6 µM. The TGI was 56.8 µM in assay [7], 53.7 µM in assay [8], 63.7 µM in assay [9] and 28.2 µM in assay [10].

For the compound `COc1cc(C2=N/C(=C/c3cccs3)C(=O)O2)cc(OC)c1OC`, the TGI in assay [1], in [2], in [3], in [4], in [5] and in assay [6] was over 100 µM throughout. The TGI in [7], in assay [8], in [9] and in assay [10] was over 100 µM throughout.

`NS(=O)(=O)NCCNc1nonc1C(=Nc1ccc(F)c(Br)c1)NO`: the GI50 was 30.2 µM in [1]; 31.2 µM in assay [2]; 28.1 µM in [3]; 35.1 µM in assay [4]; 67.4 µM in [5]; 33.8 µM in assay [6]. The GI50 in assay [7] is 31.8 µM; in assay [8], 30.8 µM; in [9], 34.8 µM; in assay [10], 41.3 µM. The TGI in assay [1], in assay [2], in assay [3], in assay [4], in assay [5] and in [6] was over 100 µM each time. For the same compound, the TGI in assay [7], in assay [8], in assay [9] and in [10] was over 100 µM each time.

Regarding `CC(=O)c1c(CO[N+](=O)[O-])n([O-])c2ccccc2[n+]1=O`, the TGI in assay [1], in assay [2], in [3], in assay [4], in [5] and in assay [6] was over 100 µM each time. The TGI in [7], in assay [8] and in assay [10] was over 100 µM throughout.

As to `C/C(=N\NC(=S)SCc1ccccc1)c1ccccn1`, the TGI was 1.77 µM in assay [1]; 1.95 µM in assay [2]; 6.44 µM in [3]; over 42.6 µM in assay [4]; 4.93 µM in [6]; 15.2 µM in assay [7]. The values for the TGI in assay [9] and in assay [10] were 16.1 µM and 3.13 µM, respectively.

Take `NS(=O)(=O)CC1CC[CH-]CC1.[Cl-].[Cl-].[Cl-].[Cl-].[Cl-].[Sb+5].c1ccncc1`: the GI50 in [1], in [2], in [3], in [4], in [5] and in assay [6] was over 100 µM throughout. The GI50 in [7], in assay [9] and in [10] was over 100 µM each time. The TGI in assay [1], in assay [2], in assay [3], in [4], in assay [5] and in assay [6] was over 100 µM in each case. Moreover, the TGI in assay [7], in [9] and in assay [10] was over 100 µM each time.
